Data on 1 molecule can be found in paper PMC9508812 (2022).

Experiment [1] relates to GG1 (DNA, mismatch bulge abasic) CTAACGGAATG/CATTCGGTTAG
As to the kind of experiment: NMR structure and titration. Particulars: Na+ 100 mM (NaCl); 20 mM sodium phosphate pH 6.8, 283 K; slow exchange, cooperative.

Experiment [2] shares this test system. As to the kind of experiment: UV melting at 260 nm. The note with it: Na+ 100 mM (NaCl); 10 mM sodium cacodylate pH 7.0; 5 µM DNA, 20 µM NCD; Tm without and with NCD.
In experiment [3] the test system is GG1 with a T4 hairpin loop (DNA, mismatch bulge abasic) CTAACGGAATGTTTTCATTCGGTTAG
Briefly: CSI-TOF MS. The note with it: NH4+ 100 mM (ammonium acetate); 50% aqueous methanol, spray -10 °C; 5 µM DNA, 100 µM NCD; 1:1 complex not observed.

The test system of experiment [4] is GG1 (DNA, mismatch bulge abasic) CTAACGGAATG/CATTCGGTTAG
As to the kind of experiment: CD. Particulars: Na+ 100 mM (NaCl); 10 mM sodium cacodylate pH 7.0, room temperature; 5 µM DNA, 20 µM NCD.

Experiment [5] has as its system d(CGG)10 (DNA, repeat) CGGCGGCGGCGGCGGCGGCGGCGGCGGCGG
As to the kind of experiment: CSI-TOF MS. Particulars: NH4+ 100 mM (ammonium acetate); 50% aqueous methanol, spray -10 °C; 10 µM DNA, 50 µM NCD.

The test system of experiment [6] is GG1 (DNA, mismatch bulge abasic) CTAACGGAATG/CATTCGGTTAG
As to the kind of experiment: ITC. Particulars: Na+ 100 mM (NaCl), 10 mM sodium cacodylate pH 7.0, 25 °C, 2.5 µM DNA, 50 µM NCD titrant.

`Cc1ccc2ccc(NC(=O)OCCCNCCCOC(=O)Nc3ccc4ccc(C)nc4n3)nc2n1`: the binding result in experiment [1], in experiment [3], in experiment [4] and in experiment [5] was “yes” in each case. In experiment [2], the Tm worked out at 21.8 °C. In experiment [6], the apparent KD (as a rule, the concentration giving half-maximal binding under the conditions of the assay) came out at 67 nM.
